Results reported in ChEMBL document CHEMBL5620345, “Metal binding pharmacophore click-derived discovery of new broad-spectrum metallo-β-lactamase inhibitors” (Eur J Med Chem, 2023).

Legend:
[1] = Inhibition of recombinant his tagged IMP1 (unknown origin) expressed in Escherichia coli (DE3) cells using FC5 as substrate by microplate reader assay
[2] = Inhibition of recombinant NDM1 (unknown origin) expressed in Escherichia coli (DE3) cells using FC5 as substrate by microplate reader assay
[3] = Inhibition of recombinant his tagged VIM-2 (unknown origin) expressed in Escherichia coli (DE3) cells using FC5 as substrate by microplate reader assay
[4] = Inhibition of recombinant VIM-1 (unknown origin) expressed in Escherichia coli (DE3) cells using FC5 as substrate by microplate reader assay
[5] = Inhibition of recombinant VIM-5 (unknown origin) expressed in Escherichia coli (DE3) cells using FC5 as substrate by microplate reader assay

SMILES | IC50 [1] [µM] | IC50 [2] [µM] | IC50 [3] [µM] | IC50 [4] [µM] | IC50 [5] [µM]
NCCN[C@H]1CC[C@H](CC(=O)N[C@H]2Cc3cccc(C(=O)O)c3OB2O)CC1 | 13.2 | 0.18 | 0.004 | 0.041 | 
O=C(O)c1cccc(-n2cc(-c3ccccc3)nn2)c1 | > 100 | > 100 | > 100 | > 100 | > 100
Nc1c(C(=O)O)cccc1-n1cc(-c2ccccc2)nn1 | > 100 | > 100 | > 100 | > 100 | > 100
O=C(O)c1ccccc1-c1cn(-c2cccc(C(=O)O)c2C(=O)O)nn1 | 13.9 | > 100 | > 100 | 19.5 | > 100
Nc1ccccc1-c1cn(-c2cccc(C(=O)O)c2C(=O)O)nn1 | 6.43 | > 100 | 37.6 | > 100 | 61.7
Nc1cccc(-c2cn(-c3cccc(C(=O)O)c3C(=O)O)nn2)c1 | 1.17 | > 100 | 11.7 | 14.5 | > 100
CCCCc1cn(-c2cccc(C(=O)O)c2C(=O)O)nn1 | 8.94 | > 100 | 77.2 | > 100 | > 100
OB(O)c1cccc(-c2cn(-c3ccccc3)nn2)c1 | > 100 | > 100 | > 100 | > 100 | > 100
NCCc1ccc(-c2cn(-c3cccc(C(=O)O)c3C(=O)O)nn2)cc1 | 1.8 | > 100 | 67.5 | > 100 | > 100
O=C(O)c1cccc(-n2cc(-c3ccccc3)nn2)c1[N+](=O)[O-] | > 100 | > 100 | > 100 | > 100 | > 100
O=P(O)(O)Cc1ccc(-n2cc(-c3ccccc3)nn2)cc1 | > 100 | > 100 | 1.63 | 16 | 1.5
O=P(O)(O)Cc1ccccc1-n1cc(-c2ccccc2)nn1 | > 100 | > 100 | 1.48 | 10 | 1.63
O=C(O)c1cccc(-n2cc(-c3ccccc3)nn2)c1C(=O)O | 8.23 | > 100 | 13.3 | > 100 | > 100
Nc1ccc(-c2cn(-c3cccc(C(=O)O)c3C(=O)O)nn2)cc1 | 5.07 | > 100 | 10.3 | > 100 | > 100
O=P(O)(O)Cc1cccc(-n2cc(-c3ccccc3)nn2)c1 | 5.98 | 27.8 | 0.65 | 3.65 | 0.05
O=C(O)c1cccc(-n2cc(CNc3ccccc3)nn2)c1C(=O)O | 3.53 | > 100 | 53.2 | 37.8 | 72
O=C(O)c1cccc(-n2cc(-c3ccccc3)nn2)c1O | > 100 | > 100 | > 100 | 61.9 | 59.9
O=C(O)c1ccc(-n2cc(-c3ccccc3)nn2)cc1C(=O)O | 46.2 | > 100 | 94.6 | > 100 | 60.4
O=C(O)c1cccc(-n2cc(Cc3ccccc3)nn2)c1C(=O)O | 9.02 | > 100 | > 100 | 71 | 87.1
NCc1cccc(-c2cn(-c3cccc(C(=O)O)c3C(=O)O)nn2)c1 | 19.7 | > 100 | > 100 | > 100 | > 100
Cc1cccc(-c2cn(-c3cccc(C(=O)O)c3C(=O)O)nn2)c1 | 1.83 | > 100 | 19.8 | > 100 | 28.8
O=C(O)c1cccc(-n2cc(-c3cccc(Cl)c3)nn2)c1C(=O)O | 2.84 | > 100 | 20.5 | 15 | 32.2
